Experiments:
CCK2i4svR = target: T1, CCK2i4svR (Homo sapiens, UniProt P32239); assay: Binding of 99mTc conjugates to HEK CCK2i4svR cells (cell bound radioactivity)
T1 construct: expressed in transfected cells; host or cells: HEK-293, G418-selected, from Dr. Mark Hellmich (University of Texas at Galveston)
T1 sequence (P32239 1-516 isoform P32239-2): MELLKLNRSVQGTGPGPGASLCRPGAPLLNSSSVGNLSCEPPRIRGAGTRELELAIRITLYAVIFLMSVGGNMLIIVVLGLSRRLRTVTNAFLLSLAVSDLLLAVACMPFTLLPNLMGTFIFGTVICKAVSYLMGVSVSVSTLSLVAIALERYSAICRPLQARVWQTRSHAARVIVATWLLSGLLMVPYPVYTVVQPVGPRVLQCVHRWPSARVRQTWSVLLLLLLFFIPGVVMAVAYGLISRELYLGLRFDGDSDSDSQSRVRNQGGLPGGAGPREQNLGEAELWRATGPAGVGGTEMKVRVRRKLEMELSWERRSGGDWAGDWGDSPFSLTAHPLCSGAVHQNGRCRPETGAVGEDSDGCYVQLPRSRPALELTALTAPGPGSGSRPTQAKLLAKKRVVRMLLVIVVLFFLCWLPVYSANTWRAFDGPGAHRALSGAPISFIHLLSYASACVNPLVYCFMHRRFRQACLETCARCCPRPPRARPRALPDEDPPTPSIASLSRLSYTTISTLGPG
Experimental: (§1) CRL-1, CRL-2, CRL-3 and CRL-4 were chelated to ^99mTc and tested for binding using two transfected cell lines of HEK-CCK2R (HEK-293 CCK2R) and HEK-CCK2R splice cell line (HEK CCK2i4svR), obtained from Dr. Mark Hellmich (University of Texas at Galveston). Cells were cultured in Dulbecco's modified Eagles (Gibco) supplemented with 10% Fetal Bovine Serum and G418 disulfate (SIGMA; 400 μg/ml), 1% penicillin/streptomycin at 37° C. in a humidified 95% air, 5% CO2 atmosphere.
(§2) Competition studies were performed using 100 fold excess of free Z-360 containing corresponding peptide linker and no chelating moiety. HEK 293 CCK2R and HEK CCK2i4svR were seeded onto 24 well plates and allowed to become confluent over 48-72 hours. Spent medium in each well was replaced with 0.5 ml fresh media containing 0.5% BSA and increasing concentrations of the test article. After incubating for 1 h at 37° C. cells were rinsed with incubation solution (2×1.0 ml) to remove any unbound radioactivity. Cells were then resuspended on 0.5 ml 0.25N NaOH and cell radioactivity was counted using a γ-counter. The dissociation constant (KD) was calculated using a plot of cell bound radioactivity versus the concentration of the radiotracer using Graphpad Prism 4 and assuming a non-cooperative single site binding equilibrium.

HEK CCK2i4svR tumors = assay: In vivo radio-imaging and bio-distribution, HEK CCK2i4svR tumor xenografts; parameters: species or system nu/nu mice
Experimental: In order to test the in vivo specificity of CRL-3 chelated with ^99mTc, HEK CCK2R and CCK2i4svR subcutaneous tumors were produced in nude mice according to known methods. Athymic female nu/nu mice were purchased from Harlan Laboratories and maintained on normal rodent chow and housed in a sterile environment on a standard 12 hour light and dark cycle for the duration of the study. All animal procedures were approved by the Purdue Animal Care and Use Committee in accordance with NIH guidelines.
150 microcurie of CRL-3 ^99mTc was injected intravenously into each mouse. FIGS. 3A-B show an overlay of whole-body radio-images on white light photographs of mice bearing images of HEK CCK2R (a, b) and HEK CCKRi4sv (c, d) tumor xenografts in nu/nu mice two hours after the administration of CRL-3 ^99mTc. Kidneys were shielded with a lead plate. Mice a and c had the radioactive conjugate administered along with 100 fold of free unlabeled targeting ligand. In mice b and d, only the radio-conjugate CRL-3 ^99mTc was administered. Arrows indicate location of the tumor.
Following the above radio-imaging studies, animals were dissected and selected organs/tissues were collected into pre-weighed γ-counter tubes. Radioactivity of weighed tissues and test compounds were counted in a γ-counter. CPM values were decay corrected and results were calculated as % injected dose per gram of wet tissue (% ID/g). […]

CCK2R = target: T2, CCK2R (Homo sapiens, UniProt P32239); assay: Binding of 99mTc conjugates to HEK-293 CCK2R cells (cell bound radioactivity); parameters: expressed in transfected cells; host or cells: HEK-293, G418-selected, from Dr. Mark Hellmich (University of Texas at Galveston)
T2 sequence (P32239 1-447): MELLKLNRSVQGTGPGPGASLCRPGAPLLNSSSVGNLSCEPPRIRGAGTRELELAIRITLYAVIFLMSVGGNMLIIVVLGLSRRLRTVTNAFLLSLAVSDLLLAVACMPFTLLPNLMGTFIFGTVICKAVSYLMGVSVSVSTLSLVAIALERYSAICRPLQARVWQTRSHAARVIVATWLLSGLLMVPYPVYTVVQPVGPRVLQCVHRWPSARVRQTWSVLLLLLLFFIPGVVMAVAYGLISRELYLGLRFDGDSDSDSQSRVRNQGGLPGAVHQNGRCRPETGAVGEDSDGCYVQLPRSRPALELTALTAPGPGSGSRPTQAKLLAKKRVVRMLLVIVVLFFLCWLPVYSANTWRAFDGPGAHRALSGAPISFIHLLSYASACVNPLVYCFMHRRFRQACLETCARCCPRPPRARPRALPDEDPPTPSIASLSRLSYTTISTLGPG
Experimental: as §1, §2

CC(C)(C)C(=O)CN1C(=O)[C@H](NC(=O)Nc2cccc(C(=O)NCCCCCCCC(=O)N[C@H](CCC(=O)O)C(=O)N[C@H](CCC(=O)NC[C@H](O)[C@@H](O)[C@H](O)[C@H](O)CO)C(=O)N[C@H](CCC(=O)O)C(=O)N[C@H](CCC(=O)NC[C@H](O)[C@@H](O)[C@H](O)[C@H](O)CO)C(=O)NC[C@@H]3[NH][99Tc]45[S]C[C@@H](C(=O)O)[N]4C(=O)[C@H](CC(=O)O)[N]5C3=O)c2)CN(C2CCCCC2)c2ccccc21 (stereo partly shown) [CRL-3 ^99mTc]
Kd (CCK2i4svR): 4 nM | accumulation of radio-conjugate, whole-body radio-image (HEK CCK2i4svR tumors; 150 microcurie i.v., two hours after administration, kidneys shielded): accumulated mainly in the receptor expressing tumor with little or no accumulation in other tissues except the kidney | bio-distribution of radiotracer in organs/tissues (HEK CCK2i4svR tumors; after radio-imaging, n=5 mice/group): only the tumor and kidneys show excessive accumulation of radiotracer | Kd (CCK2R): 30 nM
